Structures are written as SMILES. Entries after “also recorded” stand apart in the source; their conditions may differ.

In data set [1] the test system is PC12 cells. Kind of data set: Viability of PC12 cells in the presence of Aβ (MTT method). The class given is cell-based, rat. Conditions: for Suppression of neuron death caused by Aβ (in words): Aβ 10 μM, compound 0.1, 1 or 2.5 μM, PC12; for viability at 0.1 µM / viability at 1 µM / viability at 2.5 µM: Rattus norvegicus, PC-12, 48 h, read-out: Viability of cells (% of control). On the procedure: PC12 cells (derived from rats, chromaffin tumor) were cultured and subcultured in a 100 mm dish (made of Corning) coated with polylysine and containing a DMEM medium supplemented with 10% FCS and 5% horse serum (product of Sigma). Briefly, PC12 cells (1×10^6 cells/dish) were seeded in a 100 mm dish coated with polylysine. In order to induce differentiation of the PC12 cells, the cells were grown for 7 days in a DMEM medium containing 5% FCS, 50 ng/ml NGF, and 1% horse serum. The PC12 cells were then peeled off through pipetting and suspended in a suitable medium to prepare a cell suspension. The cell suspension was seeded into each well of a polylysine-coated 96-well dish (1×10^4 cells/well). Subsequently, Aβ (Bachem Feinchmikalien AG) was added so that a final concentration of 10 μM was achieved. Compound A was also added so that a final concentration of 0.1, 1.0, or 2.5 μM was achieved. […] The cells were cultured for 48 hours from the addition of compound A or compound B.
An MTT reagent (3-(4,5-dimethylthiazole-2-yl)-2,5-diphenyl tetrazolium bromide) was added to the thus-treated cells, incubation was performed for 4 hours, and the cells were lysed. The subsequent procedure was performed using a so-called MTT method, which employs colorimetry based on a reduction reaction of the reagent, to thereby obtain the viability of the cells in the suspension (Behl, C. et al., Cell, 77: 817-827, 1994). [drawing 1]
(In general: Tetrazolium assays rely on reduction of a dye to a coloured formazan, in cell work by metabolically active cells.)

For data set [2], the system named is glutathione peroxidase-like activities. Conditions: stated in description of control compound; cited from earlier work.
The test system of the next data set is mice or rats. Briefly: Adverse side effects at high dose in mice or rats. The class given is in vivo.
For data set [3], the system named is PC12 cells. Briefly: Generation of hydrogen peroxide in PC12 cells to which SNAP was added (DCFH, FACS). As to conditions: for Amounts of generated H2O2 (% log fluorescence of control): n = 3. Format: cell-based, rat. On the procedure: PC12 cells (derived from rats, chromaffin tumor) were cultured and subcultured in a 100 mm dish (made of Corning) coated with polylysine and containing a DMEM medium supplemented with 10% FCS and 5% horse serum (product of Sigma). Briefly, PC12 cells (1×10^6 cells/dish) were seeded in a 100 mm dish coated with polylysine. In order to induce differentiation of the PC12 cells, the cells were grown for 7 days in a DMEM medium containing 5% FCS, 50 ng/ml NGF, and 1% horse serum. The PC12 cells were then peeled off through pipetting and suspended in a suitable medium to prepare a cell suspension. The cell suspension was seeded into each well of a […], polylysine-coated 96-well dish (1×10^4 cells/well). After adhesion of the cells was confirmed, the following procedure was performed.
The thus-adhered PC12 cells were placed in a DMEM medium. To the cells were added 10 μM of SNAP and 2.5 μM of compound A. For control groups, only SNAP was added. Each sample was incubated for 3 hours. Thereafter, a solution of DCFH-DA (Molecular Probes, Inc.) in DMSO (1 mg/413 μl) which had been prepared in advance was added to each PC12-containing sample so that a final concentration of 5 μM was obtained, and the samples were then incubated for 30 minutes. The cells were removed using trypsin-EDTA, and recovered via centrifugation (1,000 rpm×5 min.). The recovered cells were suspended in 50 μl of PBS(-) while being cooled with ice. The amount of intracellular hydrogen peroxide was determined using a flow cytometer; The cell suspension was subjected to FACS (fluorescence-activated cell sorting), and the amount of the fluorescent substance, […], which had been oxidized by peroxides was measured.

Another data set can be described thus: LD50 in mice. Conditions: mouse, in vivo, oral. The source says:
(§1) Toxicity of compound A has been studied by obtaining LD50 values in mice and rats.

The next data set is described as follows: LD50 in rats. As to conditions: rat, in vivo.
From the text: as §1

Usually viability stands for a read-out of living cells in per cent, often relative to untreated cells. Consider `O=c1c2ccccc2sn1-c1ccccc1` [B, 2-phenyl-1,2-benzothiazol-3(2H)-one, reference compound], for which, in the data set with PC12 cells [1], the “Suppression of neuron death caused by Aβ (in words)” value is on record as “the death rate could not be suppressed”, the viability at 0.1 µM came to 14 ± 4.5%, the viability at 1 µM came out at 13 ± 1% and the viability at 2.5 µM worked out at 10 ± 5%. In data set [2], the Glutathione peroxidase-like activities entry was “having no glutathione peroxidase-like activities”.
Broadly, the LD50 is the dose expected to kill half of the subjects tested. A high value points to a less toxic substance. In the case of `O=c1c2ccccc2[se]n1-c1ccccc1` [Compound A, 2-phenyl-1,2-benzisoselenazol-3(2H)-one], in the data set with mice or rats, the Adverse side effects result is on record as “no problematic adverse side effects were observed”. For the same compound, the “Suppression of generation of hydrogen peroxide (in words)” value in the data set with PC12 cells [3] (SNAP 10 μM, compound A 2.5 μM, P≤0.0015) was “significantly suppressed; also recorded: satisfactorily suppressed”. For the same compound, in the data set with PC12 cells [3] (SNAP 10 μM, compound A 2.5 μM, P ≤ 0.0015 vs SNAP), the “Amounts of generated H2O2 (% log fluorescence of control)” value is recorded as 45.7 ± 6.03 % log fluorescence of control. Also, the “Suppression of generation of hydrogen peroxide induced by Aβ (in words)” value in the data set with PC12 cells [3] (concluding statement) is given as “significantly suppresses generation of hydrogen peroxide”. This compound also showed an LD50 in “LD50 in mice” of at least 6810 mg/kg. For the same compound, the LD50 in the data set “LD50 in rats” (ip, intraperitoneal) was found to be 580 mg/kg. Further, the 50% lethal dose (LD50) in “LD50 in rats” (oral) was at least 6810 mg/kg. Further, in the data set with PC12 cells [1], the “Suppression of neuron death caused by Aβ (in words)” value is “neuron death suppressed significantly in all cases”, the viability at 0.1 µM came out at 45 ± 2.1%, the viability at 1 µM is 59 ± 14.5% and the viability at 2.5 µM worked out at 66 ± 4.5%.
Consider `CC(=O)NC(C(=O)O)C(C)(C)SN=O` (racemic) [SNAP, Snitroso-N-acetyl-DL-penicillamine, reference compound], for which the “Amounts of generated H2O2 (% log fluorescence of control)” value with PC12 cells [3] (SNAP 10 μM alone) is listed as 135.8 ± 5.25 % log fluorescence of control. In the data set with PC12 cells [3] (SNAP 10 μM, 3 hours), the “Increase of generation of hydrogen peroxide over the level without SNAP” value is reported as 1.3-1.4 times.
